Test results as given in patent US6914045B2, “Glycopeptide antibiotics” (Wyeth Holdings Corporation, priority 2001, dated 2005).

Key:
[1] = system: Staphylococcus aureus-SMITH (GC 4543); assay: acute lethal infection in mice; type: in vivo; conditions: acute lethal infection, female CD-1 mice, intraperitoneal challenge, intravenous 30 min. after infection, 7 day survival
Procedure, shortened: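 Female CD-1 mice (20+/−2 gm) were infected intraperitoneally with enough bacteria, suspended in trypticase soy broth or hog gastric mucin, to kill untreated controls within 24-48 hr. Compound in saline or 5% dextrose was given intravenously 30 min post-infection, five mice per dose. ED50 came from pooled 7 day survival of 3 tests.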

[2] = system: Enterococcus sp.; assay: in vitro antibacterial evaluation, MIC by broth dilution; type: cell-based; conditions: broth dilution, 18 hours at 35° C.
Procedure, shortened: (§1)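 Broth dilution per NCCLS M7-A2 in Mueller-Hinton II medium, inoculum 5×10^5 CFU/mL, antibiotic range 64-0.06 μg/mL. MIC taken as lowest concentration inhibiting growth; Gram-positive panel includes recent clinical isolates resistant to methicillin, penicillin and/or vancomycin.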

[3] = system: Streptococcus sp.; assay: as above; type: cell-based; conditions: broth dilution, 18 hours at 35° C.
Procedure, shortened: as §1

[4] = system: Staphylococcus sp.; assay: as above; type: cell-based; conditions: broth dilution, 18 hours at 35° C.
Procedure, shortened: as §1

[5] = system: Escherichia coli; assay: as above; type: cell-based; conditions: 18 hours at 35° C.

CC(c1ccccc1)C1NC(=O)CNC(=O)C(CO)NC(=O)C(C(O)C2CNC(=N)N2C2OC(CO)C(O)C(O)C2O)NC(=O)C(C(O)C2CNC(=N)N2)NC(=O)C(Cc2ccc(OC3OC(CO)C(OC4OC(CO)C(OCc5ccc(OCc6ccccc6)cc5)C(O)C4O)C(O)C3O)cc2)NC1=O (stereo not drawn) [Example 231a, Cyclo[glycyl-β-methylphenylalanyl-O-[4-O-[4-O-[4-(phenylmethoxy)benzyl]hexopyranosyl]-hexopyranosyl]tyrosyl-3-(2-iminoimidazolidin-4-yl)seryl-3-(3-hexopyranosyl-2-iminoimidazolidin-4-yl)serylseryl]]
0.5 to 2 µg/mL: MIC Escherichia coli (GC 4560) [5]
<0.06 µg/mL: MIC Streptococcus agalactiae (GC 4564) [3] | MIC Streptococcus pneumoniae (ATCC 6301) [3] | MIC Streptococcus pneumoniae (GC 1894) [3] | MIC Streptococcus pneumoniae (GC 4565) [3] | MIC Streptococcus pyogenes (GC 4563) [3] | MIC Streptococcus pneumoniae (ATCC 6301) ([3]; inoculum 5×10^5 CFU/mL, strain ATCC 6301) | MIC Streptococcus pneumoniae (GC 1894) ([3]; inoculum 5×10^5 CFU/mL, strain GC 1894) | MIC Streptococcus pyogenes (GC 4563) ([3]; inoculum 5×10^5 CFU/mL, strain GC 4563) | MIC Streptococcus agalactiae (GC 4564) ([3]; inoculum 5×10^5 CFU/mL, strain GC 4564) | MIC Streptococcus pneumoniae (GC 4565) ([3]; inoculum 5×10^5 CFU/mL, strain GC 4565)
0.5 to 1 µg/mL: MIC Staphylococcus aureus (GC 4542) [4] | MIC Staphylococcus aureus (GC 4542) ([4]; strain GC 4542)
<0.12 to 0.25 µg/mL: MIC Coagulase Negative Staphylococcus (GC 4549) ([4]; strain GC 4549)
1 µg/mL: MIC Coagulase Negative Staphylococcus (GC 4547) [4] | MIC Staphylococcus aureus (GC 3051) [4] | MIC Staphylococcus aureus-SMITH (GC 4543) [4] | MIC Staphylococcus haemolyticus (GC 4546) [4] | MIC Staphylococcus aureus (GC 3051) ([4]; strain GC 3051) | MIC Staphylococcus aureus-SMITH (GC 4543) ([4]; strain GC 4543) | MIC Staphylococcus haemolyticus (GC 4546) ([4]; strain GC 4546) | MIC Coagulase Negative Staphylococcus (GC 4547) ([4]; strain GC 4547)
>0.12 to 0.25 µg/mL: MIC Coagulase Negative Staphylococcus (GC 4549) [4]
32 to 64 µg/mL: MIC Escherichia coli (ATCC 25922) [5]
2 µg/mL: MIC Enterococcus avium (GC 4558) [2] | MIC Enterococcus faecalis (ATCC 29212) [2] | MIC Enterococcus faecalis (GC 2691) [2] | MIC Enterococcus faecium (GC 2243) [2] | MIC Enterococcus faecium (GC 4557) [2] | MIC Enterococcus faecalis (ATCC 29212) ([2]; inoculum 5×10^5 CFU/mL, strain ATCC 29212) | MIC Enterococcus faecium (GC 2243) ([2]; inoculum 5×10^5 CFU/mL, strain GC 2243) | MIC Enterococcus faecalis (GC 2691) ([2]; inoculum 5×10^5 CFU/mL, strain GC 2691) | MIC Enterococcus faecium (GC 4557) ([2]; inoculum 5×10^5 CFU/mL, strain GC 4557) | MIC Enterococcus avium (GC 4558) ([2]; inoculum 5×10^5 CFU/mL, strain GC 4558)
0.5 µg/mL: MIC Coagulase Negative Staphylococcus (GC 4551) [4] | MIC Coagulase Negative Staphylococcus (GC 6257) [4] | MIC Coagulase Negative Staphylococcus (GC 4551) ([4]; strain GC 4551) | MIC Coagulase Negative Staphylococcus (GC 6257) ([4]; strain GC 6257)
0.12 to 0.25 µg/mL: MIC Coagulase Negative Staphylococcus (GC 4548) [4] | MIC Coagulase Negative Staphylococcus (GC 4548) ([4]; strain GC 4548)
32 µg/mL: MIC Escherichia coli (GC 4559) [5]
1 to 2 µg/mL: MIC Enterococcus faecalis (GC 3059) [2] | MIC Enterococcus faecalis (GC 6189) [2] | MIC Enterococcus faecalis (GC 3059) ([2]; inoculum 5×10^5 CFU/mL, strain GC 3059) | MIC Enterococcus faecalis (GC 6189) ([2]; inoculum 5×10^5 CFU/mL, strain GC 6189) | MIC Staphylococcus aureus (ATCC 29213) [4] | MIC Staphylococcus aureus (GC 1131) [4] | MIC Staphylococcus aureus (GC 3053) [4] | MIC Staphylococcus aureus (GC 4541) [4] | MIC Staphylococcus aureus (GC 4545) [4] | MIC Staphylococcus aureus (ATCC 29213) ([4]; strain ATCC 29213) | MIC Staphylococcus aureus (GC 1131) ([4]; strain GC 1131) | MIC Staphylococcus aureus (GC 3053) ([4]; strain GC 3053) | MIC Staphylococcus aureus (GC 4541) ([4]; strain GC 4541) | MIC Staphylococcus aureus (GC 4545) ([4]; strain GC 4545)
4 µg/mL: MIC Enterococcus faecalis (GC 4552) [2] | MIC Enterococcus faecalis (GC 4553) [2] | MIC Enterococcus faecalis (GC 4554) [2] | MIC Enterococcus faecalis (GC 4552) ([2]; inoculum 5×10^5 CFU/mL, strain GC 4552) | MIC Enterococcus faecalis (GC 4553) ([2]; inoculum 5×10^5 CFU/mL, strain GC 4553) | MIC Enterococcus faecalis (GC 4554) ([2]; inoculum 5×10^5 CFU/mL, strain GC 4554)
2 to 4 µg/mL: MIC Enterococcus faecalis (GC 2242) [2] | MIC Enterococcus faecium (GC 4556) [2] | MIC Enterococcus faecalis (GC 2242) ([2]; inoculum 5×10^5 CFU/mL, strain GC 2242) | MIC Enterococcus faecium (GC 4556) ([2]; inoculum 5×10^5 CFU/mL, strain GC 4556) | MIC Staphylococcus aureus (GC 4544) [4] | MIC Staphylococcus aureus (GC 4544) ([4]; strain GC 4544)
0.06 mg/kg: median effective dose (ED50), Staphylococcus aureus-SMITH (GC 4543) [1]
